Results taken from ChEMBL document CHEMBL3044870, “Effect of clomazone on various market classes of dry beans” (Crop Prot, 2007).

Assays:
Format in all cases: organism-based
Settings in all cases: in vivo, other
[1] = tested on: Phaseolus vulgaris; assay: Phytotoxicity against Phaseolus vulgaris (kidney beans) assessed as visual crop injury at 1116 g a.i./ha applied pre-emergence 1 to 2 days post-planting measured on day 14 post-emergence relative to control
[2] = tested on: Phaseolus vulgaris; assay: Phytotoxicity against Phaseolus vulgaris (brown beans) assessed as visual crop injury at 2232 g a.i./ha applied pre-emergence 1 to 2 days post-planting measured on day 14 post-emergence relative to control
[3] = tested on: Phaseolus vulgaris; assay: Phytotoxicity against Phaseolus vulgaris (black beans) assessed as visual crop injury at 1116 g a.i./ha applied pre-emergence 1 to 2 days post-planting measured on day 14 post-emergence relative to control
[4] = tested on: Phaseolus vulgaris; assay: Phytotoxicity against Phaseolus vulgaris (pinto beans) assessed as yield at 2232 g a.i./ha applied pre-emergence 1 to 2 days post-planting measured on day 42 post-emergence (reference value: 3.1 tons/ha)
[5] = tested on: Phaseolus vulgaris; assay: Phytotoxicity against Phaseolus vulgaris (cranberry beans) assessed as visual crop injury at 2232 g a.i./ha applied pre-emergence 1 to 2 days post-planting measured on day 14 post-emergence relative to control
[6] = tested on: Phaseolus vulgaris; assay: Phytotoxicity against Phaseolus vulgaris (otebo beans) assessed as shoot dry weight at 1116 g a.i./ha applied pre-emergence 1 to 2 days post-planting measured on day 42 post-emergence (reference value: 188 g/m)
[7] = tested on: Phaseolus vulgaris; assay: Phytotoxicity against Phaseolus vulgaris (white beans) assessed as shoot dry weight at 1116 g a.i./ha applied pre-emergence 1 to 2 days post-planting measured on day 42 post-emergence (reference value: 175 g/m)
[8] = tested on: Phaseolus vulgaris; assay: Phytotoxicity against Phaseolus vulgaris (yellow eye beans) assessed as yield at 1116 g a.i./ha applied pre-emergence 1 to 2 days post-planting measured on day 42 post-emergence (reference value: 2.3 tons/ha)
[9] = tested on: Phaseolus vulgaris; assay: Phytotoxicity against Phaseolus vulgaris (kidney beans) assessed as yield at 1116 g a.i./ha applied pre-emergence 1 to 2 days post-planting measured on day 42 post-emergence (reference value: 2.3 tons/ha)
[10] = tested on: Phaseolus vulgaris; assay: Phytotoxicity against Phaseolus vulgaris (dry beans) assessed as visual crop injury at 2232 g a.i./ha applied pre-emergence 1 to 2 days post-planting measured on day 28 post-emergence relative to control
[11] = tested on: Phaseolus vulgaris; assay: Phytotoxicity against Phaseolus vulgaris (black beans) assessed as shoot dry weight at 1116 g a.i./ha applied pre-emergence 1 to 2 days post-planting measured on day 42 post-emergence (reference value: 165 g/m)
[12] = tested on: Phaseolus vulgaris; assay: Phytotoxicity against Phaseolus vulgaris (white beans) assessed as plant height at 2232 g a.i./ha applied pre-emergence 1 to 2 days post-planting measured on day 28 post-emergence (reference value: 36 cm)
[13] = tested on: Phaseolus vulgaris; assay: Phytotoxicity against Phaseolus vulgaris (pinto beans) assessed as shoot dry weight at 2232 g a.i./ha applied pre-emergence 1 to 2 days post-planting measured on day 42 post-emergence (reference value: 168 g/m)
[14] = tested on: Phaseolus vulgaris; assay: Phytotoxicity against Phaseolus vulgaris (black beans) assessed as visual crop injury at 2232 g a.i./ha applied pre-emergence 1 to 2 days post-planting measured on day 14 post-emergence relative to control
[15] = tested on: Phaseolus vulgaris; assay: Phytotoxicity against Phaseolus vulgaris (cranberry beans) assessed as plant height at 1116 g a.i./ha applied pre-emergence 1 to 2 days post-planting measured on day 28 post-emergence (reference value: 37 cm)
[16] = tested on: Phaseolus vulgaris; assay: Phytotoxicity against Phaseolus vulgaris (pinto beans) assessed as yield at 1116 g a.i./ha applied pre-emergence 1 to 2 days post-planting measured on day 42 post-emergence (reference value: 3.1 tons/ha)
[17] = tested on: Phaseolus vulgaris; assay: Phytotoxicity against Phaseolus vulgaris (yellow eye beans) assessed as plant height at 2232 g a.i./ha applied pre-emergence 1 to 2 days post-planting measured on day 28 post-emergence (reference value: 38 cm)
[18] = tested on: Phaseolus vulgaris; assay: Phytotoxicity against Phaseolus vulgaris (otebo beans) assessed as visual crop injury at 2232 g a.i./ha applied pre-emergence 1 to 2 days post-planting measured on day 14 post-emergence relative to control
[19] = tested on: Phaseolus vulgaris; assay: Phytotoxicity against Phaseolus vulgaris (brown beans) assessed as visual crop injury at 1116 g a.i./ha applied pre-emergence 1 to 2 days post-planting measured on day 14 post-emergence relative to control
[20] = tested on: Phaseolus vulgaris; assay: Phytotoxicity against Phaseolus vulgaris (dry beans) assessed as change in seed moisture content at 1116 to 2232 g a.i./ha applied pre-emergence 1 to 2 days post-planting relative to control
[21] = tested on: Phaseolus vulgaris; assay: Phytotoxicity against Phaseolus vulgaris (brown beans) assessed as shoot dry weight at 2232 g a.i./ha applied pre-emergence 1 to 2 days post-planting measured on day 42 post-emergence (reference value: 149 g/m)
[22] = tested on: Phaseolus vulgaris; assay: Phytotoxicity against Phaseolus vulgaris (black beans) assessed as shoot dry weight at 2232 g a.i./ha applied pre-emergence 1 to 2 days post-planting measured on day 42 post-emergence (reference value: 165 g/m)
[23] = tested on: Phaseolus vulgaris; assay: Phytotoxicity against Phaseolus vulgaris (kidney beans) assessed as yield at 2232 g a.i./ha applied pre-emergence 1 to 2 days post-planting measured on day 42 post-emergence (reference value: 2.3 tons/ha)
[24] = tested on: Phaseolus vulgaris; assay: Phytotoxicity against Phaseolus vulgaris (dry beans) assessed as visual crop injury at 1116 g a.i./ha applied pre-emergence 1 to 2 days post-planting measured on day 14 post-emergence relative to control
[25] = tested on: Phaseolus vulgaris; assay: Phytotoxicity against Phaseolus vulgaris (cranberry beans) assessed as yield at 2232 g a.i./ha applied pre-emergence 1 to 2 days post-planting measured on day 42 post-emergence (reference value: 3.1 tons/ha)
[26] = tested on: Phaseolus vulgaris; assay: Phytotoxicity against Phaseolus vulgaris (brown beans) assessed as plant height at 1116 g a.i./ha applied pre-emergence 1 to 2 days post-planting measured on day 28 post-emergence (reference value: 37 cm)
[27] = tested on: Phaseolus vulgaris; assay: Phytotoxicity against Phaseolus vulgaris (pinto beans) assessed as plant height at 1116 g a.i./ha applied pre-emergence 1 to 2 days post-planting measured on day 28 post-emergence (reference value: 38 cm)
[28] = tested on: Phaseolus vulgaris; assay: Phytotoxicity against Phaseolus vulgaris (cranberry beans) assessed as plant height at 2232 g a.i./ha applied pre-emergence 1 to 2 days post-planting measured on day 28 post-emergence (reference value: 37 cm)
[29] = tested on: Phaseolus vulgaris; assay: Phytotoxicity against Phaseolus vulgaris (yellow eye beans) assessed as plant height at 1116 g a.i./ha applied pre-emergence 1 to 2 days post-planting measured on day 28 post-emergence (reference value: 38 cm)
[30] = tested on: Phaseolus vulgaris; assay: Phytotoxicity against Phaseolus vulgaris (black beans) assessed as yield at 2232 g a.i./ha applied pre-emergence 1 to 2 days post-planting measured on day 42 post-emergence (reference value: 3.6 tons/ha)
[31] = tested on: Phaseolus vulgaris; assay: Phytotoxicity against Phaseolus vulgaris (white beans) assessed as shoot dry weight at 2232 g a.i./ha applied pre-emergence 1 to 2 days post-planting measured on day 42 post-emergence (reference value: 175 g/m)
[32] = tested on: Phaseolus vulgaris; assay: Phytotoxicity against Phaseolus vulgaris (white beans) assessed as plant height at 1116 g a.i./ha applied pre-emergence 1 to 2 days post-planting measured on day 28 post-emergence (reference value: 36 cm)

## CC1(C)CON(Cc2ccccc2Cl)C1=O [CLOMAZONE]
[1]
  Activity: 5%
[2]
  Activity: 8%
[3]
  Activity: 3%
[4]
  Crop_yield: 3 tons/ha
[5]
  Activity: 14%
[6]
  Activity: 189 g/m
[7]
  Activity: 174 g/m
[8]
  Crop_yield: 2.6 tons/ha
[9]
  Crop_yield: 2.3 tons/ha
[10]
  Activity: 4%
[11]
  Activity: 167 g/m
[12]
  Activity: 32 cm
[13]
  Activity: 146 g/m
[14]
  Activity: 13%
[15]
  Activity: 35 cm
[16]
  Crop_yield: 3.1 tons/ha
[17]
  Activity: 32 cm
[18]
  Activity: 11%
[19]
  Activity: 3%
[20]
  Activity: Non-toxic
[21]
  Activity: 143 g/m
[22]
  Activity: 150 g/m
[23]
  Crop_yield: 2.3 tons/ha
[24]
  Activity: 4%
[25]
  Crop_yield: 3 tons/ha
[26]
  Activity: 35 cm
[27]
  Activity: 36 cm
[28]
  Activity: 32 cm
[29]
  Activity: 36 cm
[30]
  Crop_yield: 3.3 tons/ha
[31]
  Activity: 154 g/m
[32]
  Activity: 34 cm
